Experimental data published in patent US7361659B2, “Pyrrazolo-pyrimidine derivatives” (Hoffmann-La Roche Inc., priority 2005, dated 2008).

| SMILES | melting point [°C] |
| --- | --- |
| Cc1sc(S(N)(=O)=O)cc1NC(=O)c1cnn2c(C(F)(F)F)cc(-c3ccc(C(F)(F)F)cc3)nc12 [Example 47, 7-Trifluoromethyl-5-(4-trifluoromethyl-phenyl)-pyrazolo[1,5-a]pyrimidine-3-carboxylic acid (2-methyl-5-sulfamoyl-thiophen-3-yl)-amide] | 297 |
| Cc1nc(NC(=O)c2cnn3c(C(F)F)cc(-c4ccc(C(F)(F)F)cc4)nc23)sc1S(N)(=O)=O [Example 7, 7-Difluoromethyl-5-(4-trifluoromethyl-phenyl)-pyrazolo[1,5-a]pyrimidine-3-carboxylic acid (4-methyl-5-sulfamoyl-thiazol-2-yl)-amide] | 284 |
| CN(C)CCNS(=O)(=O)c1cc(NC(=O)c2cnn3c(C(F)(F)F)cc(-c4ccc(C(F)(F)F)cc4)nc23)c(Cl)s1 [Example 55, 7-Trifluoromethyl-5-(4-trifluoromethyl-phenyl)-pyrazolo[1,5-a]pyrimidine-3-carboxylic acid [2-chloro-5-(2-dimethylamino-ethylsulfamoyl)-thiophen-3-yl]-amide] | 198 |
| NCCNS(=O)(=O)c1cc(NC(=O)c2cnn3c(C(F)F)cc(-c4ccc(C(F)(F)F)cc4)nc23)c(Cl)s1 [Example 65, 7-Difluoromethyl-5-(4-trifluoromethyl-phenyl)-pyrazolo[1,5-a]pyrimidine-3-carboxylic acid [5-(2-amino-ethylsulfamoyl)-2-chloro-thiophen-3-yl]-amide] | 150 |
| O=C(Nc1cc(S(=O)(=O)N(CCO)CCO)sc1Cl)c1cnn2c(C(F)F)cc(-c3ccc(C(F)(F)F)cc3)nc12 [Example 34, 7-Difluoromethyl-5-(4-trifluoromethyl-phenyl)-pyrazolo[1,5-a]pyrimidine-3-carboxylic acid {5-[bis-(2-hydroxy-ethyl)-sulfamoyl]-2-chloro-thiophen-3-yl}-amide] | 216 |
| NS(=O)(=O)c1cc(NC(=O)c2cnn3c(C(F)(F)F)cc(-c4ccc(Cl)cc4)nc23)c(Cl)s1 [Example 9, 5-(4-Chloro-phenyl)-7-trifluoromethyl-pyrazolo[1,5-a]pyrimidine-3-carboxylic acid (2-chloro-5-sulfamoyl-thiophen-3-yl)-amide] | 329 |
| O=C(Nc1cc(S(=O)(=O)NC(CO)CO)sc1Cl)c1cnn2c(C(F)(F)F)cc(-c3ccc(C(F)(F)F)cc3)nc12 [Example 29, 7-Trifluoromethyl-5-(4-trifluoromethyl-phenyl)-pyrazolo[1,5-a]pyrimidine-3-carboxylic acid [2-chloro-5-(2-hydroxy-1-hydroxymethyl-ethylsulfamoyl)-thiophen-3-yl]-amide] | 225 |
| CN(CCO)S(=O)(=O)c1cc(NC(=O)c2cnn3c(C(F)(F)F)cc(-c4ccc(C(F)(F)F)cc4)nc23)c(Cl)s1 [Example 77, 7-Trifluoromethyl-5-(4-trifluoromethyl-phenyl)-pyrazolo[1,5-a]pyrimidine-3-carboxylic acid {2-chloro-5-[(2-hydroxy-ethyl)-methyl-sulfamoyl]-thiophen-3-yl}-amide] | 221 |
| Cc1sc(S(N)(=O)=O)cc1NC(=O)c1cnn2c(C(F)F)cc(-c3ccc(C(F)(F)F)cc3)nc12 [Example 48, 7-Difluoromethyl-5-(4-trifluoromethyl-phenyl)-pyrazolo[1,5-a]pyrimidine-3-carboxylic acid (2-methyl-5-sulfamoyl-thiophen-3-yl)-amide] | 313 |
| Cc1nc(NC(=O)c2cnn3c(C(F)F)cc(-c4ccc(C(F)(F)F)cc4)nc23)sc1S(=O)(=O)N1CCN(C)CC1 [Example 68, 7-Difluoromethyl-5-(4-trifluoromethyl-phenyl)-pyrazolo[1,5-a]pyrimidine-3-carboxylic acid [4-methyl-5-(4-methyl-piperazine-1-sulfonyl)-thiazol-2-yl]-amide] | 269 |

Further lines, results first:

| melting point [°C] | SMILES |
| --- | --- |
| 233 | CC(C)(CO)NS(=O)(=O)c1cc(NC(=O)c2cnn3c(C(F)F)cc(-c4ccc(C(F)(F)F)cc4)nc23)c(Cl)s1 [Example 5, 7-Difluoromethyl-5-(4-trifluoromethyl-phenyl)-pyrazolo[1,5-a]pyrimidine-3-carboxylic acid [2-chloro-5-(2-hydroxy-1,1-dimethyl-ethylsulfamoyl)-thiophen-3-yl]-amide] |
| 225 | Cc1sc(S(=O)(=O)NC(C)(C)CO)cc1NC(=O)c1cnn2c(C(F)(F)F)cc(-c3ccc(C(F)(F)F)cc3)nc12 [Example 49, 7-Trifluoromethyl-5-(4-trifluoromethyl-phenyl)-pyrazolo[1,5-a]pyrimidine-3-carboxylic acid [5-(2-hydroxy-1,1-dimethyl-ethylsulfamoyl)-2-methyl-thiophen-3-yl]-amide] |
| 250 | Cc1nc(NC(=O)c2cnn3c(C(F)(F)F)cc(-c4ccc(C(F)(F)F)cc4)nc23)sc1S(=O)(=O)NC(C)(CO)CO [Example 42, 7-Trifluoromethyl-5-(4-trifluoromethyl-phenyl)-pyrazolo[1,5-a]pyrimidine-3-carboxylic acid [5-(2-hydroxy-1-hydroxymethyl-1-methyl-ethylsulfamoyl)-4-methyl-thiazol-2-yl]-amide] |
| 207 | Cc1cc(-c2cc(C(F)(F)F)n3ncc(C(=O)Nc4cc(S(=O)(=O)NC(C)(C)CO)sc4Cl)c3n2)ccc1C(F)(F)F [Example 16, 5-(3-Methyl-4-trifluoromethyl-phenyl)-7-trifluoromethyl-pyrazolo[1,5-a]pyrimidine-3-carboxylic acid [2-chloro-5-(2-hydroxy-1,1-dimethyl-ethylsulfamoyl)-thiophen-3-yl]-amide] |
| 272 | CC(C)(CO)NS(=O)(=O)c1cc(NC(=O)c2cnn3c(C(F)(F)F)cc(-c4ccc(Cl)cc4)nc23)c(Cl)s1 [Example 12, 5-(4-Chloro-phenyl)-7-trifluoromethyl-pyrazolo[1,5-a]pyrimidine-3-carboxylic acid [2-chloro-5-(2-hydroxy-1,1-dimethyl-ethylsulfamoyl)-thiophen-3-yl]-amide] |
| 235 | Cc1nc(NC(=O)c2cnn3c(C(F)(F)F)cc(-c4ccc(C(F)(F)F)cc4)nc23)sc1S(=O)(=O)NCCN(C)C [Example 58, 7-Trifluoromethyl-5-(4-trifluoromethyl-phenyl)-pyrazolo[1,5-a]pyrimidine-3-carboxylic acid [5-(2-dimethylamino-ethylsulfamoyl)-4-methyl-thiazol-2-yl]-amide] |
| 180 | Cc1sc(S(=O)(=O)NC(C)(C)CO)cc1NC(=O)c1cnn2c(C(F)F)cc(-c3ccc(C(F)(F)F)cc3)nc12 [Example 50, 7-Difluoromethyl-5-(4-trifluoromethyl-phenyl)-pyrazolo[1,5-a]pyrimidine-3-carboxylic acid [5-(2-hydroxy-1,1-dimethyl-ethylsulfamoyl)-2-methyl-thiophen-3-yl]-amide] |
| 305 | Cc1nc(NC(=O)c2cnn3c(C(F)(F)F)cc(-c4ccc(Cl)cc4)nc23)sc1S(N)(=O)=O [Example 19, 5-(4-Chloro-phenyl)-7-trifluoromethyl-pyrazolo[1,5-a]pyrimidine-3-carboxylic acid (4-methyl-5-sulfamoyl-thiazol-2-yl)-amide] |
| 293 to 294 | Cc1nc(NC(=O)c2cnn3c(C4CC4)cc(-c4ccc(Cl)cc4)nc23)sc1S(=O)(=O)NC(C)(C)CO [Example 62, 5-(4-Chloro-phenyl)-7-cyclopropyl-pyrazolo[1,5-a]pyrimidine-3-carboxylic acid [5-(2-hydroxy-1,1-dimethyl-ethylsulfamoyl)-4-methyl-thiazol-2-yl]-amide] |
| 309 | Cc1cc(-c2cc(C(F)(F)F)n3ncc(C(=O)Nc4nc(C)c(S(N)(=O)=O)s4)c3n2)ccc1C(F)(F)F [Example 21, 5-(3-Methyl-4-trifluoromethyl-phenyl)-7-trifluoromethyl-pyrazolo[1,5-a]pyrimidine-3-carboxylic acid (4-methyl-5-sulfamoyl-thiazol-2-yl)-amide] |
| 265 | Cc1nc(NC(=O)c2cnn3c(C(F)(F)F)cc(-c4ccc(Cl)c(Cl)c4)nc23)sc1S(=O)(=O)NC(C)(C)CO [Example 31, 5-(3,4-Dichloro-phenyl)-7-trifluoromethyl-pyrazolo[1,5-a]pyrimidine-3-carboxylic acid [5-(2-hydroxy-1,1-dimethyl-ethylsulfamoyl)-4-methyl-thiazol-2-yl]-amide] |
| 276 | CCOc1cc(-c2cc(C(F)(F)F)n3ncc(C(=O)Nc4nc(C)c(S(=O)(=O)NC(C)(C)CO)s4)c3n2)ccc1C(F)(F)F [Example 23, 5-(3-Ethoxy-4-trifluoromethyl-phenyl)-7-trifluoromethyl-pyrazolo[1,5-a]pyrimidine-3-carboxylic acid [5-(2-hydroxy-1,1-dimethyl-ethylsulfamoyl)-4-methyl-thiazol-2-yl]-amide] |
| 273 | Cc1nc(NC(=O)c2cnn3c(C(F)(F)F)cc(-c4ccc(C(F)(F)F)cc4)nc23)sc1S(=O)(=O)N1CCN(C)CC1 [Example 69, 7-Trifluoromethyl-5-(4-trifluoromethyl-phenyl)-pyrazolo[1,5-a]pyrimidine-3-carboxylic acid [4-methyl-5-(4-methyl-piperazine-1-sulfonyl)-thiazol-2-yl]-amide] |
| 299 | Cc1nc(NC(=O)c2cnn3c(C(F)(F)F)cc(-c4ccc(C(F)(F)F)c(Cl)c4)nc23)sc1S(N)(=O)=O [Example 25, 5-(3-Chloro-4-trifluoromethyl-phenyl)-7-trifluoromethyl-pyrazolo[1,5-a]pyrimidine-3-carboxylic acid (4-methyl-5-sulfamoyl-thiazol-2-yl)-amide] |
| 217 | Cc1nc(NC(=O)c2cnn3c(C(F)F)cc(-c4ccc(C(F)(F)F)cc4)nc23)sc1S(=O)(=O)NC(CO)CO [Example 63, 7-Difluoromethyl-5-(4-trifluoromethyl-phenyl)-pyrazolo[1,5-a]pyrimidine-3-carboxylic acid [5-(2-hydroxy-1-hydroxymethyl-ethylsulfamoyl)-4-methyl-thiazol-2-yl]-amide] |
